Results on three compounds are retold here after patent US20150335691A1, “PLANT EXTRACT OBTAINED FROM KIELMEYERA AUREOVINOSA WHICH HAS ANTIBIOTIC ACTIVITY, ISOLATED CHEMICAL COMPOUND, COMPOSITIONS COMPRISING SAME, USES THEREOF AND METHODS FOR PREVENTING AND TREATING BACTERIAL INFECTIONS” (EXTRACTA MOLÉCULAS NATURAIS S/A, priority 2011, published 2015).

One test has as its system Staphylococcus aureus. Description: MIC by broth microdilution against Staphylococcus aureus. It counts as cell-based. As to conditions: read-out: minimum inhibitory concentration (MIC). On the technique in general: Broth dilution looks for growth in wells or tubes with falling amounts of substance.
For test [1], the system named is strain ATCC 33591 of MRSA. Put plainly: MIC by broth microdilution against MRSA. As to conditions: MRSA ATCC 33591, 36° C. 48 h, Resazurin.
Protocol: Pure DMSO samples are shown as zero control. […] Initial Concentration: 850 μg/mL.
The ethanol extract was dissolved in DMSO at a concentration of 10 mg/mL, from which serial dilutions were prepared (ratio 1:2) in 96-well sterile plates, geometry 12×8 wells. To each well were added 10 μL of a bacterial suspension containing approximately 7×10^6 cells/mL, prepared from the recent growth of strain ATCC 33591 of MRSA in nutrient agar. […] The experiments were performed in quadruplicate, in different periods.
Test [2] concerns clinical isolates of Staphylococcus aureus. To be noted: pure molecule; literature value; cited from earlier work.

Converted amounts (≈) assume the structure as drawn.

Turning to `CC(C)C(=O)c1c2c(c3oc(=O)cc(-c4ccc(O)cc4)c3c1O)CC(C)(C)C=C2` [amarilin], the MIC in the test with Staphylococcus aureus was no more than 1 µg/mL.

For the compound `Cl.O=C(O)c1cn(C2CC2)c2cc(N3CCNCC3)c(F)cc2c1=O` [hydrochloride ciprofloxacin], the “minimum inhibitory concentration (MIC)” value in test [1] is 1 µg/mL.

Take `C/C(=C\C(=O)OCCCCCCCCC(=O)O)C[C@@H]1OC[C@H](C[C@@H]2O[C@H]2[C@@H](C)[C@H](C)O)[C@@H](O)[C@H]1O` [mupirocin]: the MIC value in test [2] is roughly 0.5 µg/mL (≈ 0.999 µM).
